In patent US7022688B1, “Use of 17β-dihydroequilenin as an antioxidant” (Wyeth, priority 1996, dated 2006):

What was measured:
[1] = system: oxidatively modified low density lipoprotein (LDL); experiment: porcine aortic endothelial cell mediated LDL oxidation assay (TBARS method); type: cell-based; conditions: pocine aortic endothelial cell mediated oxidation of LDL
Source text: (§1) The antioxidant properties of 17β-dihydroequilenin were established in a standard pharmacological test procedure that measured the its ability to inhibit the formation of oxidatively modified low density lipoprotein (LDL) induced by exposure to either Cu++ ions or cultured endothelial cells (Parthasarathy S, Proc Natl Acad Sci USA 86:1046–1050 (1989)) by the TBARS (thiobarbituric acid reactive substances) method for analysis of free aldehydes (Yagi K., Biochem Med 15:212–216 (1976)).

[2] = system: oxidatively modified low density lipoprotein (LDL); experiment: inhibition of LDL oxidation induced by Cu++ ions or cultured endothelial cells (TBARS method); conditions: maximal inhibition of the process
Source text: as §1

Row | IC50 [1] | Structure (SMILES) | inhibition of LDL oxidation [2]
1 | 315 nM | C[C@]12CCc3c(ccc4cc(O)ccc34)[C@@H]1CC[C@@H]2O [17β-dihydroequilenin] | up to 100%
2 | 560 nM | C[C@]12CC[C@@H]3c4ccc(O)cc4CC[C@H]3[C@@H]1CCC2=O [estrone, reference compound] | –
